Patent US7592160B2, “Processes for producing isomaltose and isomaltitol and use thereof” (Kabushiki Kaisha Hayashibara Seibutsu Kagaku Kenkyujo, priority 2001, dated 2009)

How the values were obtained:
[1] = test system: α-isomaltosylglucosaccharide-forming enzyme; assay: Action on saccharides as substrates (TLC), enzyme of N75 strain; format: biochemical, Bacillus globisporus N75 strain; design: key: −: it showed no change; +: it showed a slight reduction of the color spot of the substrate and the formation of other reaction product; ++: it showed a high reduction of the color spot of the substrate and the formation of other reaction product; +++: it showed a substantial disappearance of the substrate spot and the formation of other reaction product; details: two units/g substrate, substrate 2% (w/v), 30° C., pH 6.0, 24 hours
Text: (§1) To examine the saccharides in the supernatant, they were separated by developing twice on silica gel thin-layer chromatography (abbreviated as “TLC” hereinafter) using, as a developer, a mixture solution of n-butanol, pyridine, and water (=6:4:1 by volume), and, as a thin-layer plate, “[…]™ 60”, an aluminum plate (20×20 cm) for TLC commercialized by Merck & Co., Inc., Rahway, USA. The coloration of the separated total sugars by the sulfuric acid-methanol method and that of the reducing saccharides by the diphenylamine-aniline method detected a non-reducing saccharide positive at an Rf value of about 0.31 on the former detection method but negative on the latter detection method.
(§2) It was tested whether any saccharides can be used as substrates for α-isomaltosylglucosaccharide-forming enzyme. For the purpose, a solution of maltose, maltotriose, maltotetraose, maltopentaose, maltohexaose, maltoheptaose, isomaltose, isomaltotriose, panose, isopanose, α,α-trehalose, kojibiose, nigerose, neotrehalose, cellobiose, gentibiose, maltitol, maltotriitol, lactose, sucrose, erlose, selaginose, maltosyl glucoside, or isomaltosyl glucoside was prepared.
(§3) To each of the above solutions was added two units/g substrate of a purified specimen of α-isomaltosylglucosaccharide-forming enzyme from either Bacillus globisporus C9 strain obtained by the method in Experiment 4-2, Bacillus globisporus C11 strain obtained by the method in Experiment 7-2, Bacillus globisporus N75 strain obtained by the method in Experiment 11-2, or Arthrobacter globiformis A19 strain obtained by the method in Experiment 15-2, and the resulting each solution was adjusted to give a substrate concentration of 2% (w/v) and incubated at 30° C. and pH 6.0 for 24 hours, except for using pH 8.4 for the enzyme from Arthrobacter globiformis A19 strain. The enzyme solutions before and after the enzymatic reactions were respectively analyzed on TLC disclosed in Experiment 1 to confirm whether the enzymes acted on these substrates.

[2] = test system: α-isomaltosylglucosaccharide-forming enzyme; assay: Action on saccharides as substrates (TLC), enzyme of C9 strain; format: biochemical, Bacillus globisporus C9 strain; design: key: −: it showed no change; +: it showed a slight reduction of the color spot of the substrate and the formation of other reaction product; ++: it showed a high reduction of the color spot of the substrate and the formation of other reaction product; +++: it showed a substantial disappearance of the substrate spot and the formation of other reaction product; details: two units/g substrate, substrate 2% (w/v), 30° C., pH 6.0, 24 hours
Text: as §1, §2, §3

[3] = test system: α-isomaltosylglucosaccharide-forming enzyme; assay: Action on saccharides as substrates (TLC), enzyme of C11 strain; format: biochemical, Bacillus globisporus C11 strain; design: key: −: it showed no change; +: it showed a slight reduction of the color spot of the substrate and the formation of other reaction product; ++: it showed a high reduction of the color spot of the substrate and the formation of other reaction product; +++: it showed a substantial disappearance of the substrate spot and the formation of other reaction product; details: two units/g substrate, substrate 2% (w/v), 30° C., pH 6.0, 24 hours
Text: as §1, §2, §3

[4] = test system: α-isomaltosylglucosaccharide-forming enzyme; assay: Action on saccharides as substrates (TLC), enzyme of A19 strain; format: biochemical, Arthrobacter globiformis A19 strain; design: key: −: it showed no change; +: it showed a slight reduction of the color spot of the substrate and the formation of other reaction product; ++: it showed a high reduction of the color spot of the substrate and the formation of other reaction product; +++: it showed a substantial disappearance of the substrate spot and the formation of other reaction product; details: two units/g substrate, substrate 2% (w/v), 30° C., pH 8.4, 24 hours
Text: as §1, §2, §3

[5] = test system: α-isomaltosylglucosaccharide-forming enzyme; assay: Transfer-acceptor specificity, enzyme of A19 strain; format: biochemical, Arthrobacter globiformis A19 strain; design: key: −: no saccharide-transferred product was detected through transfer reaction to acceptor; ±: a saccharide-transferred product was detected in an amount less than one percent through transfer reaction to acceptor; +: a saccharide-transferred product was detected in an amount over one percent but less than 10% through transfer reaction to acceptor; ++: a saccharide-transferred product was detected in an amount over ten percent through transfer reaction to acceptor; details: acceptor 1.6%, PINE-DEX #100 donor 4%, one unit/g donor, 30° C., pH 8.4, 24 hours
Protocol: (§4) Using various saccharides, it was tested whether the saccharides were used as transferring-acceptors for α-isomaltosylglucosaccharide-forming enzyme. A solution of D-glucose, D-xylose, L-xylose, D-galactose, D-fructose, D-mannose, D-arabinose, D-fucose, D-psicose, L-sorbose, L-rhamnose, methyl-α-glucopyranoside, methyl-β-glucopyranoside, N-acetyl-glucosamine, sorbitol, α,α-trehalose, isomaltose, isomaltotriose, cellobiose, gentibiose, glycerol, maltitol, lactose, sucrose, α-cyclodextrin, β-cyclodextrin, γ-cyclodextrin, or L-ascorbic acid was prepared. To each solution with a saccharide concentration of 1.6% was added “PINE-DEX #100”, a partial starch hydrolyzate, as a saccharide donor, to give a concentration of 4%, and admixed with one unit/g saccharide donor, d.s.b., of either of purified specimens of α-isomaltosylglucosaccharide-forming enzyme from Bacillus globisporus C9 strain obtained by the method in Experiment 4-2, Bacillus globisporus C11 strain obtained by the method in Experiment 7-2, Bacillus globisporus N75 strain obtained by the method in Experiment 11-2, or Arthrobacter globiformis A19 strain obtained by the method in Experiment 15-2, and incubated at 30° C. and pH 6.0 for 24 hours, except that pH 8.4 was used for the enzyme from Arthrobacter globiformis A19 strain. The reaction mixtures of the post-enzymatic reactions were analyzed on gas chromatography (abbreviated as “GLC” hereinafter) for monosaccharides and disaccharides as acceptors, and on HPLC for trisaccharides as acceptors to confirm whether these saccharides could be used as the transfer acceptors of the above enzymes. In the case of performing GLC, the following apparatuses and conditions were used: GLC apparatus, “GC-16A” commercialized by Shimadzu Corporation, Tokyo, Japan; column, a stainless-steel column, 3 mm in diameter and 2 m in length, packed with 2% “SILICONE OV-17/CHROMOSOLV W”, commercialized by GL Sciences Inc., Tokyo, Japan; carrier gas, nitrogen gas at a flow rate of 40 ml/min under temperature conditions of increasing from 160° C. to 320° C. at an increasing temperature rate of 7.5° C./min; and detection, a hydrogen flame ionization detector. In the case of performing HPLC analysis, the following apparatuses and conditions were used: HPLC apparatus, “CCPD” commercialized by Tosoh Corporation, Tokyo, Japan; column, “ODS-AQ-303” commercialized by YMC Co., Ltd., Tokyo, Japan; eluent, water at a flow rate of 0.5 ml/min; and detection, a differential refractometer.

[6] = test system: α-isomaltosylglucosaccharide-forming enzyme; assay: Transfer-acceptor specificity, enzyme of C9 strain; format: biochemical, Bacillus globisporus C9 strain; design: key: −: no saccharide-transferred product was detected through transfer reaction to acceptor; ±: a saccharide-transferred product was detected in an amount less than one percent through transfer reaction to acceptor; +: a saccharide-transferred product was detected in an amount over one percent but less than 10% through transfer reaction to acceptor; ++: a saccharide-transferred product was detected in an amount over ten percent through transfer reaction to acceptor; details: acceptor 1.6%, PINE-DEX #100 donor 4%, one unit/g donor, 30° C., pH 6.0, 24 hours
Protocol: as §4

[7] = test system: α-isomaltosylglucosaccharide-forming enzyme; assay: Transfer-acceptor specificity, enzyme of N75 strain; format: biochemical, Bacillus globisporus N75 strain; design: key: −: no saccharide-transferred product was detected through transfer reaction to acceptor; ±: a saccharide-transferred product was detected in an amount less than one percent through transfer reaction to acceptor; +: a saccharide-transferred product was detected in an amount over one percent but less than 10% through transfer reaction to acceptor; ++: a saccharide-transferred product was detected in an amount over ten percent through transfer reaction to acceptor; details: acceptor 1.6%, PINE-DEX #100 donor 4%, one unit/g donor, 30° C., pH 6.0, 24 hours
Protocol: as §4

[8] = test system: α-isomaltosylglucosaccharide-forming enzyme; assay: Transfer-acceptor specificity, enzyme of C11 strain; format: biochemical, Bacillus globisporus C11 strain; design: key: −: no saccharide-transferred product was detected through transfer reaction to acceptor; ±: a saccharide-transferred product was detected in an amount less than one percent through transfer reaction to acceptor; +: a saccharide-transferred product was detected in an amount over one percent but less than 10% through transfer reaction to acceptor; ++: a saccharide-transferred product was detected in an amount over ten percent through transfer reaction to acceptor; details: acceptor 1.6%, PINE-DEX #100 donor 4%, one unit/g donor, 30° C., pH 6.0, 24 hours
Protocol: as §4

| Compound | Enzymatic action, Enzyme of N75 strain [1] | Enzymatic action, Enzyme of C9 strain [2] | Enzymatic action, Enzyme of C11 strain [3] | Enzymatic action, Enzyme of A19 strain [4] | Product of transferring reaction, Enzyme of A19 strain [5] | Product of transferring reaction, Enzyme of C9 strain [6] | Product of transferring reaction, Enzyme of N75 strain [7] | Product of transferring reaction, Enzyme of C11 strain [8] |
| --- | --- | --- | --- | --- | --- | --- | --- | --- |
| OC[C@H]1O[C@H](O[C@H]2O[C@H](CO)[C@@H](O)[C@H](O)[C@H]2O[C@H]2O[C@H](CO)[C@@H](O)[C@H](O)[C@H]2O)[C@H](O)[C@@H](O)[C@@H]1O [Selaginose, selaginose] | − | − | − | − |  |  |  |  |
| OC[C@H]1O[C@@H](O[C@H]2O[C@H](CO)[C@@H](O)[C@H](O)[C@H]2O)[C@H](O)[C@@H](O)[C@@H]1O [Neotrehalose, neotrehalose] | + | + | + | + |  |  |  |  |
| OC[C@H]1O[C@@](CO)(O[C@H]2O[C@H](CO)[C@@H](O[C@H]3O[C@H](CO)[C@@H](O)[C@H](O)[C@H]3O)[C@H](O)[C@H]2O)[C@@H](O)[C@@H]1O [Erlose, erlose] | + | + | + | + |  |  |  |  |
| isomaltosyl glucoside | − | − | − | − |  |  |  |  |
| OC[C@H]1O[C@H](O[C@H]2[C@H](O)[C@@H](O)[C@H](O)O[C@@H]2CO)[C@H](O)[C@@H](O)[C@@H]1O [Maltose, maltose] | + | + | + | + |  |  |  |  |
| OC[C@H]1O[C@H](O[C@H]2[C@H](O)[C@@H](O)[C@@H](OC[C@H]3OC(O)[C@H](O)[C@@H](O)[C@@H]3O)O[C@@H]2CO)[C@H](O)[C@@H](O)[C@@H]1O (some centres unmarked) [Isopanose, isopanose] | ++ | ++ | ++ | ++ |  |  |  |  |
| OC[C@H]1O[C@H](O[C@H]2[C@H](O)[C@@H](CO)OC(O)[C@@H]2O)[C@H](O)[C@@H](O)[C@@H]1O (some centres unmarked) [Nigerose, nigerose] | + | + | + | + |  |  |  |  |
| maltohexaose | +++ | +++ | +++ | +++ |  |  |  |  |
| OC[C@H]1O[C@@H]2O[C@H]3[C@H](O)[C@@H](O)[C@@H](O[C@H]4[C@H](O)[C@@H](O)[C@@H](O[C@H]5[C@H](O)[C@@H](O)[C@@H](O[C@H]6[C@H](O)[C@@H](O)[C@@H](O[C@H]7[C@H](O)[C@@H](O)[C@@H](O[C@H]8[C@H](O)[C@@H](O)[C@@H](O[C@H]1[C@H](O)[C@H]2O)O[C@@H]8CO)O[C@@H]7CO)O[C@@H]6CO)O[C@@H]5CO)O[C@@H]4CO)O[C@@H]3CO [β-Cyclodextrin, β-cyclodextrin] |  |  |  |  | − | − | − | − |
| C[C@@H](O)[C@H](O)[C@H](O)[C@@H](O)C=O [D-Fucose, D-fucose] |  |  |  |  | ± (a saccharide-transferred product was detected in an amount less than one percent through transfer reaction to acceptor) | + (a saccharide-transferred product was detected in an amount over one percent but less than 10% through transfer reaction to acceptor) | + (a saccharide-transferred product was detected in an amount over one percent but less than 10% through transfer reaction to acceptor) | + (a saccharide-transferred product was detected in an amount over one percent but less than 10% through transfer reaction to acceptor) |
| OCC(O)CO [Glycerol, glycerol] |  |  |  |  | + (a saccharide-transferred product was detected in an amount over one percent but less than 10% through transfer reaction to acceptor) | + (a saccharide-transferred product was detected in an amount over one percent but less than 10% through transfer reaction to acceptor) | + (a saccharide-transferred product was detected in an amount over one percent but less than 10% through transfer reaction to acceptor) | + (a saccharide-transferred product was detected in an amount over one percent but less than 10% through transfer reaction to acceptor) |
